ChEMBL document CHEMBL4017471, “Discovery of novel aminobenzisoxazole derivatives as orally available factor IXa inhibitors” (Bioorg Med Chem Lett, 2017)

System: not listed separately
Test: Cmax in rat at 1 mg/kg, po administered as cassette dose
Type: ADME, organism-based
Parameters: dose 1 mg/kg, route oral
Details: in vivo

SMILES | Cmax [ng/mL]
Nc1noc2c(N3CC[C@@H](NC(=O)c4ccc(-n5cnnc5)cc4Cl)C3)ncc(Cl)c12 | 120
Cn1ncn(-c2ccc(C(=O)N[C@@H]3CCN(c4ncc(Cl)c5c(N)noc45)C3)c(Cl)c2)c1=O | 390
Cc1ncn(-c2ccc(C(=O)N[C@@H]3CCN(c4ncc(Cl)c5c(N)noc45)C3)c(Cl)c2)n1 | 330

Target: Coagulation factor IX (Homo sapiens, UniProt P00740)
Details: not given

Chain of Coagulation factor IX (P00740 47-191 limits assumed): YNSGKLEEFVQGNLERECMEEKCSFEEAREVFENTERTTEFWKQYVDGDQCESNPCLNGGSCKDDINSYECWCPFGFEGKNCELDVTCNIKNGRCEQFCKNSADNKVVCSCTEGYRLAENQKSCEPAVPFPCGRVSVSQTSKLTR
Chain of Coagulation factor IX (P00740 227-461 limits assumed): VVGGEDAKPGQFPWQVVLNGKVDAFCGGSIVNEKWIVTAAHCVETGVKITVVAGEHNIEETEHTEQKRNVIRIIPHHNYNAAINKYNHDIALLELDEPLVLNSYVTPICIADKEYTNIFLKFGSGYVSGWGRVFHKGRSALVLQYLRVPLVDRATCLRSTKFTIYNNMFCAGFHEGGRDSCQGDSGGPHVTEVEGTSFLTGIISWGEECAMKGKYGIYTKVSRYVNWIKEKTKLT

SMILES | IC50 [nM]
Nc1noc2c(N3CC[C@@H](NC(=O)c4ccc(-n5cnnc5)cc4Cl)C3)ncc(Cl)c12 | 31
Cn1ncn(-c2ccc(C(=O)N[C@@H]3CCN(c4ncc(Cl)c5c(N)noc45)C3)c(Cl)c2)c1=O | 15
Cc1ncn(-c2ccc(C(=O)N[C@@H]3CCN(c4ncc(Cl)c5c(N)noc45)C3)c(Cl)c2)n1 | 33

System: not listed separately
Test: Unbound plasma concentration in human at 10 uM measured after 4 hrs by equilibrium dialysis method
Type: ADME, cell-free
Details: not given

SMILES | fraction unbound at 4 h, 10 µM
Nc1noc2c(N3CC[C@@H](NC(=O)c4ccc(-n5cnnc5)cc4Cl)C3)ncc(Cl)c12 | 0.012
Cn1ncn(-c2ccc(C(=O)N[C@@H]3CCN(c4ncc(Cl)c5c(N)noc45)C3)c(Cl)c2)c1=O | 0.016
Cc1ncn(-c2ccc(C(=O)N[C@@H]3CCN(c4ncc(Cl)c5c(N)noc45)C3)c(Cl)c2)n1 | 0.002

Target: Coagulation factor X (Homo sapiens, UniProt P00742)
Details: not given

Chain of Coagulation factor X (P00742 41-179 limits assumed): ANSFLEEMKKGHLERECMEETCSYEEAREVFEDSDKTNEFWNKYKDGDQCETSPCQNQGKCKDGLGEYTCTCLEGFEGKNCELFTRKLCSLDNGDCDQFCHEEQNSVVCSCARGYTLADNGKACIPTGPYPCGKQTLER
Chain of Coagulation factor X (P00742 235-488 limits assumed): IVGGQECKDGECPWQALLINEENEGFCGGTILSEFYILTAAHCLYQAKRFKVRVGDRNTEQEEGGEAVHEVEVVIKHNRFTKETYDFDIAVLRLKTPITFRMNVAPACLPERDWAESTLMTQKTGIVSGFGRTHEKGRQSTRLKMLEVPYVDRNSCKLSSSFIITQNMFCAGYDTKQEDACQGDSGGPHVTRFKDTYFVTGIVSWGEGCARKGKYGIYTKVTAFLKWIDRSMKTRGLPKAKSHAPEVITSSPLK

SMILES | IC50 [nM]
Nc1noc2c(N3CC[C@@H](NC(=O)c4ccc(-n5cnnc5)cc4Cl)C3)ncc(Cl)c12 | 78000
Cn1ncn(-c2ccc(C(=O)N[C@@H]3CCN(c4ncc(Cl)c5c(N)noc45)C3)c(Cl)c2)c1=O | > 100000
Cc1ncn(-c2ccc(C(=O)N[C@@H]3CCN(c4ncc(Cl)c5c(N)noc45)C3)c(Cl)c2)n1 | > 100000

System: Plasma
Test: Anticoagulant activity in human plasma assessed as concentration required to double activated partial thromboplastin time
Type: functional
Details: not given

SMILES | 2aPTT [µM]
Cn1ncn(-c2ccc(C(=O)N[C@@H]3CCN(c4ncc(Cl)c5c(N)noc45)C3)c(Cl)c2)c1=O | 13
Cc1ncn(-c2ccc(C(=O)N[C@@H]3CCN(c4ncc(Cl)c5c(N)noc45)C3)c(Cl)c2)n1 | 113

System: not listed separately
Test: Apparent permeability of the compound at 5 uM after 5 hrs by PAMPA
Type: physicochemical
Details: not given

SMILES | Papp at 5 h, 5 µM [×10⁻⁶ cm/s]
Nc1noc2c(N3CC[C@@H](NC(=O)c4ccc(-n5cnnc5)cc4Cl)C3)ncc(Cl)c12 | 0.7
Cn1ncn(-c2ccc(C(=O)N[C@@H]3CCN(c4ncc(Cl)c5c(N)noc45)C3)c(Cl)c2)c1=O | 10.3
Cc1ncn(-c2ccc(C(=O)N[C@@H]3CCN(c4ncc(Cl)c5c(N)noc45)C3)c(Cl)c2)n1 | 11.6
